Test results published in patent US20120028995A1, “NOVEL COMPOUNDS FOR MEDICAL USE AS PEPTIDASE EFFECTORS” (IMTM GMBH, priority 2010, published 2012).

Key:
[1] = biological target: T1, cytosolic aminopeptidase (cAAP) purified from Jurkat cells (Homo sapiens, UniProt P55786); experiment: Inhibition of enzymatic activity of cytosolic aminopeptidase (cAAP); format: biochemical; conditions: highest test item concentration 25 μM; for IC50: read-out: meas. IC50 (cAAP)
T1 construct: The cytosolic aminopeptidase (cAAP) was purified from Jurkat cells; endogenous in cells; host or cells: Jurkat cells (enzyme purified from them)
T1 sequence (P55786 whole entry): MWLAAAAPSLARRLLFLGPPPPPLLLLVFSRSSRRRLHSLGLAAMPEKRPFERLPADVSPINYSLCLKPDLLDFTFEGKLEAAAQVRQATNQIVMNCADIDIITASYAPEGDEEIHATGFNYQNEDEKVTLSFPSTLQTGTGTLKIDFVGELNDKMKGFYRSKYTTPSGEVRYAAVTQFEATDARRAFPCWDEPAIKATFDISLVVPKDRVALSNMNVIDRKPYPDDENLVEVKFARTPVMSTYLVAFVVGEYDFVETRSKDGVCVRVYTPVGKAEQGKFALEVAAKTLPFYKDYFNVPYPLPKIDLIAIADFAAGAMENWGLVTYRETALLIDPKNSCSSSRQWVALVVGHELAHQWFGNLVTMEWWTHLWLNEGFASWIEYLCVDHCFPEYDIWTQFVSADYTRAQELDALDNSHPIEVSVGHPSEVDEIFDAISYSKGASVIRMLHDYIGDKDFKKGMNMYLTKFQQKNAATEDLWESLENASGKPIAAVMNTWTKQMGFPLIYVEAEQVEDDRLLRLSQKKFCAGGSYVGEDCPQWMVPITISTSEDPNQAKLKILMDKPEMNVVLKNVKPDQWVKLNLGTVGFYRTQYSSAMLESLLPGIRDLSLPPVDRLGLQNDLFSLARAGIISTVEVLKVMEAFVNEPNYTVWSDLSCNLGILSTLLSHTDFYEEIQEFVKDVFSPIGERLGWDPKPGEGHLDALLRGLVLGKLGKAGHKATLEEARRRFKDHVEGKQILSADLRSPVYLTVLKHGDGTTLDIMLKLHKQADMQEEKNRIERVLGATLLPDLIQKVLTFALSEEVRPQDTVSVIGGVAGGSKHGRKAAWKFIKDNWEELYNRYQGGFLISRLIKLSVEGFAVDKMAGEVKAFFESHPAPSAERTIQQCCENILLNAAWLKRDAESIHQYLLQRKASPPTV

[2] = test system: purified, recombinant DP8 and DP9; experiment: Inhibition of enzymatic activity of DP8/9; format: biochemical; conditions: highest test item concentration 25 μM; for IC50: read-out: meas. IC50 (DP8/9)
Procedure: (§1) The inhibition of the enzymatic activity of DPIV and related enzymes was measured by using purified, recombinant human DPIV (purified from transfected Sf9 cells, final enzyme concentration approx. 1 nM) as well as purified, recombinant DP8 and DP9 (purchased from Biomol). The assay was performed in 0.05M TRIS/HCl puffer pH 7.5, supplemented with 0.05% Triton (v/v), 0.05% BSA (w/v), 2 mM MgCl2.
(§2) The enzymatic activity of DPIV was assessed by the hydrolysis of the fluorogenic substrates H-Gly-Pro-4-amino-7-methyl coumarine (abbreviation of fluorogenic group AMC; purchased from Bachem) or (Ala-Pro)2-Rhodamine 110 (abbreviation R110). The final substrate concentrations were 50 μM or 1 μM, respectively.
(§3) The assay was performed in white microtitre plates for fluorescence measurements. The test items, substrate and enzyme were diluted in assay buffer. The highest test item concentration used was 25 μM. For the calculation of IC50 values, at least 16 log 2-dilutions of each test item were analyzed. As controls, the DPIV activity in the absence of test items as well as the spontaneous hydrolysis of the substrate was determined.
(§4) The release of the fluorescent hydrolysis product AMC was measured at an excitation wavelength of 380 nm and an emission wavelength of 460 nm by using a microtitre fluorescence reader immediately after substrate addition as well as after 30, 60 and 120 min. The hydrolysis of the substrate (Ala-Pro)2-Rhodamine 110 was determined at an exitation wavelength of 488 nm and emission wavelength of 530 nm.

T lymphocytes (T cells) = experiment: Suppression of DNA synthesis of PHA-stimulated T lymphocytes; format: cell-based; conditions: Homo sapiens, T-cell, 48 h, tritium thymidine incorporation, read-out: Supp. DNA Synt. T-cell IC50
Procedure: Peripheral blood mononuclear cells (PBMC) from healthy human volunteers were freshly isolated by density gradient centrifugation. T lymphocytes (T cells) were isolated from PBMC fractions via nylon wool adherence. Both cell populations were cultured in serum free lymphocyte medium (AIMV medium, Invitrogen) and stimulated by addition of 1 μg/ml Phytohemagglutinine for 48 hours in 96 well flat-bottom microtiter plates. Test compounds were added at concentration ranges from 0.1 up to 250 μM over the total assay period.
DNA synthesis of proliferating PBMC was assessed by incorporation of nucleotide analogue bromdesoxyuridine (BrdU) and subsequent detection of BrdU by ELISA technique (Cell Proliferation Biotrak™ ELISA system, GE Health Care) according to the protocol of the manufacturer. DNA synthesis of proliferating T cells was determined by incorporation of radio labelled tritium thymidine and subsequent radio detection.
Data output was based on raw data and calculation of relative proliferation response in relation to PHA-activated T cells in the absence of test compound (100% control). The IC50 value of proliferation suppression was assessed by graphical evaluation.

[3] = biological target: T2, purified, recombinant human DPIV (Homo sapiens, UniProt P27487); experiment: Inhibition of enzymatic activity of DPIV (fluorogenic substrate hydrolysis); format: biochemical; conditions: highest test item concentration 25 μM; for IC50: read-out: meas. IC50 (DPIV)
T2 construct: made in house; host or cells: Sf9 insect cells
T2 sequence (P27487 whole entry): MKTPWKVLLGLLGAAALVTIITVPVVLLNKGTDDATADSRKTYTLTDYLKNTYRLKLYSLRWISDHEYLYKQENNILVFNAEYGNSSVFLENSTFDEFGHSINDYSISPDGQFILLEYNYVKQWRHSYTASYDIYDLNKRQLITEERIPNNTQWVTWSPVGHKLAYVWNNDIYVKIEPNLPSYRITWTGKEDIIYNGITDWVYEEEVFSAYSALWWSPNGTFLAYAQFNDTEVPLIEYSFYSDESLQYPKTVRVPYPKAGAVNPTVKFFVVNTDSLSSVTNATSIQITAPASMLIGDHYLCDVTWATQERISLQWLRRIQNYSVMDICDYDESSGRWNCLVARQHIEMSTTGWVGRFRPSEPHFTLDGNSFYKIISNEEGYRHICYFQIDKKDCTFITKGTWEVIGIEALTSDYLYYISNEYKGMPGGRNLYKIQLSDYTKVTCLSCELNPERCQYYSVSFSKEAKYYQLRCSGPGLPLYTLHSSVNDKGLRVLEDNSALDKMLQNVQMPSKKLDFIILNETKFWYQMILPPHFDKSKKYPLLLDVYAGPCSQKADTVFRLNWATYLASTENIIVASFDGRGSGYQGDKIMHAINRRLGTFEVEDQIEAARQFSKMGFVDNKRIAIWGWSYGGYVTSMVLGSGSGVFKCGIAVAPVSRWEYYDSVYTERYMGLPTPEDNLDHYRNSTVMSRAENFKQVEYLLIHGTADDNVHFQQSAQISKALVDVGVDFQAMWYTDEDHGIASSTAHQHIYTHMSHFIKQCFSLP
Procedure: as §1, §2, §3, §4

SZ95 cells = experiment: Inhibition of DNA synthesis and proliferation of immortalized human sebocytes SZ95; format: cell-based; conditions: Homo sapiens, EGF-stimulated SZ95 sebocytes, tritium thymidine incorporation; read-out: Supp. DNA Synt. SZ95 IC50
Procedure: The immortalized human sebocyte line SZ95 was provided by Prof. C Zouboulis [C C Zouboulis, H Seltmann, H Neitzel, C E Orfanos, Establishment and characterization of an immortalized human sebaceous gland cell line (SZ95). J. Invest. Dermatol. 113(6):1011-1020 (1999), the entire disclosure of which is incorporated by reference herein]. These adherent growing cells were cultured in serum-free Sebomed Complete (Biochrom). Recombinant EGF was added in order to stimulate DNA synthesis and proliferation of the SZ95 cells. Test items were added in concentrations from 0.1 up to 100 μM.
The DNA synthesis of proliferating cells was detected by incorporation of radiolabelled tritium thymidine (3HT) and counting at a beta counter. Based on these raw data the relative proliferation response in relation to cells cultured in the absence of test compound (100% control) was calculated. IC50 values of proliferation suppression were assessed by computer-assisted graphical evaluation.

[4] = biological target: T3, aminopeptidase N (APN), purified recombinant human enzyme (Homo sapiens, UniProt P15144); experiment: Inhibition of enzymatic activity of aminopeptidase N (fluorogenic substrate hydrolysis); format: biochemical; conditions: highest test item concentration 25 μM; for IC50: read-out: meas. IC50 (APN)
T3 construct: made in house; host or cells: ECV cells (transfected)
T3 sequence (P15144 whole entry): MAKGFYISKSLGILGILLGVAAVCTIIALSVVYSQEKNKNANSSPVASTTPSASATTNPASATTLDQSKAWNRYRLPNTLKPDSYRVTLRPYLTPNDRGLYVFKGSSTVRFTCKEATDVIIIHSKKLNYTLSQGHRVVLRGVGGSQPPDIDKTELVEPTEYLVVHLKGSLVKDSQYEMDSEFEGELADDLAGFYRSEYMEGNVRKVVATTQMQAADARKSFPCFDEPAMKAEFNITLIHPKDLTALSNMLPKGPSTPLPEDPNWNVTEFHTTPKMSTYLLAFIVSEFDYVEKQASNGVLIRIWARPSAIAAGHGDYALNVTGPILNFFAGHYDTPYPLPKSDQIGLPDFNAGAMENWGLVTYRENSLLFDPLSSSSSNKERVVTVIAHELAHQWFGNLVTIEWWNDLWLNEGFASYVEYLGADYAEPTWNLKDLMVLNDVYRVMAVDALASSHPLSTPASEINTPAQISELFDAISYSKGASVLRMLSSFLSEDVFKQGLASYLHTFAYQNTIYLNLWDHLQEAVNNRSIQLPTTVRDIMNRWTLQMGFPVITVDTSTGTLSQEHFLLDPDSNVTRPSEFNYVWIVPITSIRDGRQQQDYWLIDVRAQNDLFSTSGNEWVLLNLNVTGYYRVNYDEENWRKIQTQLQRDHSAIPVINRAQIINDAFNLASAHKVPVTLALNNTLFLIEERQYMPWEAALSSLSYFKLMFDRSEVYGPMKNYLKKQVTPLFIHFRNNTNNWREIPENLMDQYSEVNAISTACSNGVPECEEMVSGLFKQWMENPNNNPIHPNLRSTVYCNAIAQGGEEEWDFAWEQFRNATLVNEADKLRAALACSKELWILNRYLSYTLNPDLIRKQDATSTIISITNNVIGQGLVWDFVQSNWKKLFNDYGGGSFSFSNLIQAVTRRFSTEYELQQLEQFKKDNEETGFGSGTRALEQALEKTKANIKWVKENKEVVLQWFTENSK
Procedure: The inhibition of the enzymatic activity of aminopeptidase N (APN) was measured by using purified, recombinant human enzyme (purified from transfected ECV cells, final enzyme concentration approx. 1 nM). […] The assay was performed in 0.05M TRIS/HCl puffer pH 7.5, supplemented with 0.05% Triton (v/v), 0.05% BSA (w/v), 2 mM MgCl2.
The aminopeptidase acitivities wer assessed by the hydrolysis of the fluorogenic substrates H-Ala-4-amino-7-methyl coumarine (abbreviation of fluorogenic group AMC; purchased from Bachem) or (Ala-)2-Rhodamine 110 (abbreviation R110). The final substrate concentrations were again 50 and 1 μM, respectively.
as §3
The release of the fluorescent hydrolysis products AMC and R110 was measured as described above for DPIV substrates.

NHEK cells = experiment: Inhibition of DNA synthesis and proliferation of normal human epidermal keratinocytes (NHEK); format: cell-based; conditions: Homo sapiens, NHEK, 48 h, EGF-stimulated NHEK, BrdU incorporation, read-out: Supp. DNA Synt. NHEK IC50
Procedure: NHEK cells (primary cells from person) were purchased from PromoCell. For these assay the adherent cells were cultured in serum-free Keratinocyte Growth medium 2 supplemented with epidermal growth factor (EGF) and bovine pituitary extract for 48 hours in flat-bottom microtiter plates. EGF stimulates the DNA synthesis and proliferation of these cells. Test items were added in concentrations from 0.1 up to 100 μM.
The DNA synthesis was assessed by incorporation of bromdesoxyuridine (BrdU) and subsequent detection of BrdU by ELISA technique. Based on these raw data the relative proliferation response in relation to cells cultured in the absence of test compound (100% control) was calculated. IC50 values of proliferation suppression were assessed by computer-assisted graphical evaluation.

Structure (SMILES)	meas. IC50 (cAAP) [1]	meas. IC50 (DP8/9) [2]	IC50 (T lymphocytes (T cells))	meas. IC50 (DPIV) [3]	IC50 (SZ95 cells)	meas. IC50 (APN) [4]	IC50 (NHEK cells)	IC50 [2]	IC50 [3]	IC50 [1]	IC50 [4]
CCCCCCCCCCCCCC(=O)NC(CC(=O)NCC(C)(C)CNC(=O)C(O)C(COCc1ccccc1)NC(=O)CCCCCCCCCCCCC)Cc1cc(F)ccc1F (stereo not shown) [Compound C19.011]	no in- hibition	no in- hibition	168 µM	no in- hibition	≥ 155 µM	no in- hibition	≥ 110 µM	–	–	–	–
CC(C)(CNC(=O)CC(N)Cc1cc(F)ccc1F)CNC(=O)C(O)C(COCc1ccccc1)NC(=O)OC(C)(C)C (stereo not shown) [Compound C19.028]	no in- hibition	–	9 µM	–	49.4 µM	no in- hibition	31.4 µM	1.4 µM	0.17 µM	–	–
CC(C)(C)OC(=O)NC(CCCCNC(=O)C(O)C(Cc1ccccc1)NC(=O)OC(C)(C)C)C(=O)N1CCSC1 (stereo not shown) [Compound C21.002]	no in- hibition	no in- hibition	55.1 µM	no in- hibition	61.6 µM	no in- hibition	49.3 µM	–	–	–	–
NC(CCCCNC(=O)C(S)C(N)Cc1ccccc1)C(=O)N1CCSC1 (stereo not shown) [Compound C22.003]	–	–	30.2 µM	–	75.2 µM	–	38.9 µM	0.34 µM	0.032 µM	3.5 µM	3.79 µM
CCCCCC(=O)NC(CC(=O)NCC(C)(C)CNC(=O)C(O)C(COCc1ccc(OC)cc1)NC(=O)CCCCC)Cc1cc(F)ccc1F (stereo not shown) [Compound C19.013]	no in- hibition	no in- hibition	6.5 µM	no in- hibition	17.4 µM	no in- hibition	15.3 µM	–	–	–	–
CCCCCC(=O)NC(CC(=O)NCC(C)(C)CNC(=O)C(OC(=O)CCCCC)C(COCc1ccccc1)NC(=O)CCCCC)Cc1cc(F)ccc1F (stereo not shown) [Compound C19.014]	no in- hibition	no in- hibition	19.8 µM	no in- hibition	≥ 149 µM	no in- hibition	2.97 µM	–	–	–	–
NC(CCCCNC(=O)C(O)C(N)Cc1ccccc1)C(=O)N1CCSC1 (stereo not shown) [Compound C21.001]	–	–	90.1 µM	–	65.5 µM	–	77 µM	0.02 µM	0.11 µM	0.066 µM	0.178 µM
